Assay results from patent US5733913A, “6-Aryl pyrido[2,3-d] pyrimidines and naphthyridines for inhibiting protein tyrosine kinase mediated cellular proliferation” (priority 1995, dated 1998).

Tests used:
[1] = test system: PDGF receptor; experiment: PDGF receptor autophosphorylation in RASMC; assay type: cell-based, rat; settings: PDGF-BB 30 ng/mL, read-out: Inhibition of PDGF Stimulated Receptor Auto Phosphorylation (IC50)
Experimental: Rat aorta smooth muscle cells (RASMC) were isolated from the thoracic aorta of rats and explanted according to the method of Ross, J. Cell. […] Cells were grown in Dulbecco's modified Eagle's medium (DMEM, Gibco) containing 10% fetal calf serum (FBS, Hyclone, Logan, Utah), 1% glutamine (Gibco) and 1% penicillin/streptomycin (Gibco). Cells were identified as smooth muscle cells by their "hill and valley" growth pattern and by fluorescent staining with a monoclonal antibody specific for SMC μ-actin (Sigma). RASMC were used between passages 5 and 20 for all experiments. Test compounds were prepared in dimethylsulfoxide (DMSO) in order to achieve consistency in the vehicle and to ensure compound solubility. Appropriate DMSO controls were simultaneously evaluated with the test compounds.
PDGF Receptor Autophosphorylation
RASMC were grown to confluency in 100 mm dishes. Growth medium was removed and replaced with serum-free medium and cells were incubated at 37° C. for an additional 24 hours. Test compounds were then added directly to the medium and cells incubated for an additional 2 hours. After 2 hours, PDGF-BB was added at a final concentration of 30 ng/mL for 5 minutes at 37° C. to stimulated autophosphorylation of the PDGF receptor. Following growth factor treatment, the medium was removed, and cells were washed with cold phosphate-buffered saline and immediately lysed with 1 mL of lysis buffer (50 mM HEPES[pH 7.5], 150 mM NaCl, 10% glycerol, 1% Triton X-100, 1 mM EDTA, 1 mMEGTA, 50 mM NaF, 1 mM sodium orthovanadate, 30 mM p-nitrophenyl phosphate, 10 mM sodium pyrophosphate, 1 mM phenylmethyl sulfonyl fluoride, 10 μg/mL aprotinin, and 10 μg/mL leupeptin). Lysates were centrifuged at 10,000×g for 10 minutes. […] Following the incubation, protein-A-sepharose beads were added for 2 hours with continuous mixing, and immune complexes bound to the beads washed 4 times with 1 mL lysis wash buffer. Immune complexes were solubilized in 30 μL of Laemmli sample buffer and electrophoresed in 4-20% SDS polyacrylamide gels. Following electrophoresis, separated proteins were transferred to nitrocellulose and immunoblotted with anti-phosphotyrosine antiserum. […] IC50 values were generated from the densitometric data.

[2] = biological target: T1, Human EGF receptor tyrosine kinase (Homo sapiens, UniProt P00533); experiment: EGF receptor tyrosine kinase assay; assay type: biochemical; settings: for IC50: read-out: Inhibition of Protein Tyrosine Kinases, EGF, IC50; for inhibition at 50 µM: read-out: Inhibition of Protein Tyrosine Kinases, EGF, % Inhibition
T1 construct: isolated from A431 epidermoid carcinoma cells; endogenous in cells; host or cells: A431 epidermoid carcinoma cells (Triton lysate, wheat germ agglutinin eluate)
Experimental: Purification of Epidermal Growth Factor Receptor Tyrosine Kinase
Human EGF receptor tyrosine kinase was isolated from A431 epidermoid carcinoma cells by the following methods. Cells were grown in roller bottles in 50% Delbuco's Modified Eagle and 50% HAM F-12 nutrient media (Gibco) containing 10% fetal calf serum. Approximately 10^9 cells were lysed in two volumes of buffer containing 20 mM 2-(4N-[2-hydroxyethyl]piperazin-1-yl)ethanesulfonic acid, pH 7.4, 5 mM ethylene glycol bis(2-aminoethyl ether)N,N,N',N'-tetraacetic acid, 1% Triton X-100, 10% glycerol, 0.1 mM sodium orthovanadate, 5 mM sodium fluoride, 4 mM pyrophosphate, 4 mM benzamide, 1 mM dithiothreitol, 80 μg/mL aprotinin, 40 μg/mL leupeptin, and 1 mM phenylmethylsulfonyl fluoride. After centrifugation at 25,000×g for 10 minutes, the supernatant was equilibrated for 2 hours at 4° C. with 10 mL of wheat germ agglutinin sepharose that was previously equilibrated with 50 mM Hepes, 10% glycerol, 0.1% Triton X-100 and 150 mM NaCl, pH 7.5, (equilibration buffer). Contaminating proteins were washed from the resin with 1M NaCl in equilibration buffer, and the enzyme was eluted with 0.5M N-acetyl-1-D-glucosamine in equilibration buffer.
Determination of IC50 Values
The reaction was terminated by the addition of 2 mL of 75 mM phosphoric acid and passed through a 2.5-cm phosphocellulose filter disc to bind the peptide. The filter was washed five times with 75 mM phosphoric acid and placed in a vial along with 5 mL of scintillation fluid (Ready gel Beckman).

[3] = test system: V-src kinase; experiment: V-src kinase assay; assay type: biochemical; settings: at 50 μM
Experimental: V-src and C-src Kinase Assays
V-src or C-src kinase is purified from baculovirus infected insect cell lysates using an antipeptide monoclonal antibody directed against the N-terminal 2-17 amino acids. The antibody, covalently linked to 0.65-μm latex beads, is added to a suspension of insect cell lysis buffer comprised of 150 mM NaCl, 50 mM Tris pH 7.5, 1 mM DTT, 1% NP-40, 2 mM EGTA, 1 mM sodium vanadate, 1 mM PMSF, 1 μg/mL each of leupeptin, pepstatin, and aprotinin. Insect cell lysate containing either the c-src or v-src protein is incubated with these beads for 3-4 hours at 4° C. with rotation. At the end of the lysate incubation, the beads are rinsed 3 times in lysis buffer, resuspended in lysis buffer containing 10% glycerol, and frozen. These latex beads are thawed, rinsed three times in assay buffer which is comprised of 40 mM tris pH 7.5, 5 mM MgCl2, and suspended in the same buffer. In a Millipore 96-well plate with a 0.65 μm polyvinylidine membrane bottom are added the reaction components: 10-μL v-src or c-src beads, 10 μL of 2.5 mg/mL poly GluTyr substrate, 5 μM ATP containing 0.2 μCi labeled ^32 P-ATP, 5μL DMSO containing inhibitors or as a solvent control, and buffer to make the final volume 125 μL. The reaction is started at room temperature by addition of the ATP and quenched 10 minutes later by the addition of 125 μL of 30% TCA, 0.1M sodium pyrophosphate for 5 minutes on ice. The plate is then filtered and the wells washed with two 250-μL aliquots of 15% TCA, 0.1M pyrophosphate. The filters are punched, counted in a liquid scintillation counter, and the data examined for inhibitory activity in comparison to a known inhibitor such as erbstatin. The method is described more fully in J. Med. Chem., 37:598-609 (1994).

[4] = biological target: T2, human FGF-1 (flg) receptor tyrosine kinase (Homo sapiens, UniProt P11362); experiment: FGF receptor tyrosine kinase assay; assay type: biochemical; settings: for IC50: read-out: Inhibition of Protein Tyrosine Kinases, FGF, IC50
T2 construct: a fragment of DNA that codes for the intracellular tyrosine kinase domain; made in house; host or cells: Sf9 insect cells (baculovirus), cell lysate
Method in brief: (§1)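 Intracellular kinase domains expressed in baculovirus-infected SF9 cells; crude lysate used as enzyme. Inhibitor preincubated 10 min at 25 °C with lysate in pH 7.0 Hepes buffer with 10 mM MnCl2 and poly(Glu-Tyr) 4:1, then γ-32P-ATP (50 μM ATP) added for 10 min at 25 °C. TCA-precipitated 32P on filters counted, no-enzyme background subtracted.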

[5] = biological target: T3, mouse PDGF-β receptor tyrosine kinase (Mus musculus, UniProt P05622); experiment: PDGF receptor tyrosine kinase assay; assay type: biochemical; settings: for IC50: read-out: Inhibition of Protein Tyrosine Kinases, PDGF, IC50; for inhibition at 50 µM: read-out: Inhibition of Protein Tyrosine Kinases, PDGF, % Inhibition
T3 construct: a fragment of DNA that codes for the intracellular tyrosine kinase domain; made in house; host or cells: Sf9 insect cells (baculovirus), cell lysate
Method in brief: as §1

[6] = biological target: T4, C-src kinase (Homo sapiens, UniProt P12931); experiment: C-src kinase assay; assay type: biochemical; settings: for IC50: read-out: Inhibition of Protein Tyrosine Kinases, C-src, IC50; for inhibition at 50 µM: read-out: Inhibition of Protein Tyrosine Kinases, C-src, % Inhibition
T4 construct: made in house; host or cells: baculovirus-infected insect cells
Method in brief: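 Baculovirus-expressed c-src immunopurified on antibody-coated latex beads, assayed in 40 mM Tris pH 7.5, 5 mM MgCl2 with poly GluTyr substrate and 5 μM ATP plus 32P-ATP. Reaction 10 min at room temperature, TCA-quenched, filtered; incorporated label counted by scintillation.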

T3 sequence (P05622 599-961 limits assumed): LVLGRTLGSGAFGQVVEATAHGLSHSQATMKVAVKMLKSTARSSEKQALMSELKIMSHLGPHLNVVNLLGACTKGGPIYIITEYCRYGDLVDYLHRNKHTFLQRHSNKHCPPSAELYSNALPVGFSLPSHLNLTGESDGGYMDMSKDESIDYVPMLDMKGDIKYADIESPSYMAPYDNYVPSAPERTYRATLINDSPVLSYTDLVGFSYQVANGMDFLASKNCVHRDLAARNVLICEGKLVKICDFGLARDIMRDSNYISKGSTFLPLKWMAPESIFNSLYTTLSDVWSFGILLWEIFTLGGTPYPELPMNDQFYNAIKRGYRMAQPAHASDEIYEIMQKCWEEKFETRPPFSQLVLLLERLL
T2 sequence (P11362 478-767 limits assumed): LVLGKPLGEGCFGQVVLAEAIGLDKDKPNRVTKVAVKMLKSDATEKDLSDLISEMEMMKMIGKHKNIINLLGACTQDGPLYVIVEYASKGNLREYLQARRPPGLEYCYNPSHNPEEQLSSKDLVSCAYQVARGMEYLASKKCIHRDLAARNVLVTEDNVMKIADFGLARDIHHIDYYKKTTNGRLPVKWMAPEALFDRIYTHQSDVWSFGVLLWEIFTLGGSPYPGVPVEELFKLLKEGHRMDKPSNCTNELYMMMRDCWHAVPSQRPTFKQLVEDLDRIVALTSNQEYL

| Molecule | IC50 [1] [nM] | IC50 [2] [nM] | Inhibition of Protein Tyrosine Kinases, V-src, % Inhibition [3] [%] | IC50 [4] [nM] | inhibition at 50 µM ([2]; at 50 μM) [%] | IC50 [5] [nM] | IC50 [6] [nM] | inhibition at 50 µM [5] [%] | inhibition at 50 µM [6] [%] | inhibition at 50 µM ([4]; at 50 μM, read-out: Inhibition of Protein Tyrosine Kinases, FGF, % Inhibition) [%] | Inhibition of Protein Tyrosine Kinases, EGF, % Inhibition ([2]; at 50 μM) [%] |
| --- | --- | --- | --- | --- | --- | --- | --- | --- | --- | --- | --- |
| Cc1cccc(C)c1-c1cc2cnc(N)nc2nc1NC(=O)NC(C)(C)C [Example 6, 1-[2-Amino-6-(2,6-dimethylphenyl)-pyrido[2,3-d]pyrimidin-7-yl]-3-tert-butylurea] | 350 | 457 | 39.8 | 397 | – | – | – | – | – | – | – |
| CC(C)(C)NC(=O)Nc1nc2nc(N)ncc2cc1-c1c(Br)cccc1Br [Example 88, 1-[2-Amino-6-(2,6-dibromo-phenyl)-pyrido[2,3-d]pyrimidin-7-yl]-3-tert-butyl-urea] | – | – | – | 148 | 34.4 | 711 | 213 | – | – | – | – |
| Cc1ccccc1-c1cc2cnc(NC(=O)NC(C)(C)C)nc2nc1NC(=O)NC(C)(C)C [Example 4, 1-tert-Butyl-3-[7-(3-tert-butylureido)-6-o-tolyl-pyrido[2,3-d]pyrimidin-2-yl]urea] | – | – | 3.1 | – | 36.6 | – | – | 31.9 | 33.6 | 21.5 | – |
| Nc1cc2nc(N)c(-c3ccccc3Cl)cc2cn1 [Example 17, 3-(2-Chlorophenyl)-[1,6]naphthyridine-2,7-diamine] | – | 7220 | 5.3 | 4500 | – | 27000 | 2760 | – | – | – | – |
| CCCCNC(=O)Nc1ncc2cc(-c3c(Cl)cccc3Cl)c(NC(=O)NCCCC)nc2n1 [Example 25, 1-Butyl-3-[7-(3-butyl-ureido)-6-(2,6-dichlorophenyl)-pyrido[2,3-d]pyrimidin-2-yl]-urea] | – | – | 0.0 | 11800 | 57.5 | 6040 | 207 | – | – | – | – |
| Nc1ncc2cc(-c3c(Cl)cccc3Cl)c(NC3=NCCO3)nc2n1 [Example 24, 2-[2-Amino-6-(2,6-dichlorophenyl)-pyrido[2,3-d]pyrimidin-7-yl]-amino-4,5-dihydro-oxazole] | – | – | – | 7290 | 58.3 | 11400 | 214 | – | – | – | – |
| CNc1ncc2cc(-c3ccccc3)c(NC)nc2n1 [Example 19, N^2,N^7 -Dimethyl-6-phenyl-pyrido[2,3-d]pyrimidine-2,7-diamine] | – | – | 5.2 | 16900 | 26.1 | – | – | 47.7 | 52.8 | – | – |
| Cc1ccccc1-c1cc2cnc(N)nc2nc1NC(=O)NC(C)(C)C [Example 5, 1-[2-Amino-6-o-tolyl-pyrido[2,3-d]pyrimidin-7-yl]-3-tert-butylurea] | – | 928 | 23.3 | 1400 | – | 466 | 407 | – | – | – | – |
| CC(C)(C)NC(=O)Nc1ncc2cc(-c3c(Cl)cccc3Cl)c(NC(=O)NC(C)(C)C)nc2n1 [Example 2, 1-tert-Butyl-3-[7-(3-tert-butylureido)-6-(2,6-dichlorophenyl)-pyrido[2,3-d]pyrimidin-2-yl]urea] | – | – | – | 1600 | 52.3 | 10200 | 19500 | – | – | – | – |
| Cc1ccccc1-c1cc2cnc(N)cc2nc1N [Example 16, 3-o-Tolyl-[1,6]naphthyridine-2,7-diamine] | – | 7080 | 10.3 | 9210 | – | 10700 | 1380 | – | – | – | – |
| 1-[2-Amino-6-(2,6-dichlorophenyl)-pyrido[2,3-d]pyrimidin-7-yl]-3-(3-morpholin-4-yl-propyl)-thiourea [Example 23] | – | – | 10.2 | 291 | – | 4510 | 613 | – | – | – | 104.8 |
| CCNC(=O)Nc1nc2nc(N)ncc2cc1-c1c(Cl)cccc1Cl [Example 22, 1-[2-Amino-6-(2,6-dichlorophenyl)-pyrido[2,3-d]pyrimidin-7-yl]-3-ethylurea] | 3730 | – | 46.9 | 128 | 90.4 | 1300 | 77 | – | – | – | – |
| CN(C)C=Nc1ncc2cc(-c3c(Cl)cccc3Cl)c(NC(=O)NC(C)(C)C)nc2n1 [Example 79, N'-[7-(3-tert-Butylureido)-6-(2,6-dichlorophenyl)-pyrido[2,3-d]pyrimidin-2-yl]-N,N-dimethylformamidine] | – | – | – | 8090 | 60.9 | 17800 | – | – | – | – | – |
| CCN(CC)CCCNc1ncc2cc(-c3c(Cl)cccc3Cl)c(NC(=O)NC(C)(C)C)nc2n1 [Example 21, 1-tert-Butyl-3-[6-(2,6-dichlorophenyl)-2-(3-diethylamino-propylamino)-pyrido[2,3-d]pyrimidin-7-yl]-urea] | 1800 | 6970 | 49.4 | 82.4 | – | 660 | 73 | – | – | – | – |
| CC(=O)Nc1ncc2cc(-c3c(Cl)cccc3Cl)c(NC(C)=O)nc2n1 [Example 7, N-[2-Acetylamino-6-(2,6-dichlorophenyl)-pyrido[2,3-d]pyrimidin-7-yl]-acetamide] | – | – | 7.6 | 17900 | 25.1 | – | 2300 | 33.5 | – | – | – |
